# Measured values as given in patent US11891455B2, “Polymorph form of (r)-2-[2-amino-3-(indol-3-yl)propionylamino]-2- methylpropionic acid and uses thereof” (Galimedix Therapeutics Inc., priority 2019, dated 2024).
# Peptide text beside a SMILES is read from it.
# How the values were obtained:
# Assay type in all cases: physicochemical
# [1] = Solubility test in water (visual check); settings: for solubility in water (in words): visual check
# Protocol: To a three necked 1 L flask equipped with stirrer and thermometer, 60.0 g (207.4 mmol) of (R)-2-[2-amino-3-(indol-3-yl)propionylamino]-2-methylpropionic acid, which is as synthesized by methods as described herein, e.g., at Examples 6 and 11, or by the method as previously described in U.S. Patent Application Publication No. 2006/0234947, was added to a mixture of 167.0 mL of water and 21.0 mL of concentrated hydrochloric acid, resulting in the formation of a yellowish brown solution. The pH of the solution was set to 5.6 with 53.0 mL of a 20% NaOH solution at 0-5° C. About 30 minutes later, the crystallization started at 0-5° C. The suspension was stirred overnight at 0-5° C. The suspension was filtered on a pre-chilled funnel. As an in-process control, the solubility of a part of the filter cake in water was checked. […] Form II of (R)-2-[2-Amino-3-(indol-3-yl)propionylamino]-2-methylpropionic acid was isolated and dried at 0-5° C. over P2O5.
# To a three necked 6 L flask equipped with overhead stirrer, thermometer, and pH meter, 1189.0 g of wet […] from Step 1 was dissolved in a mixture of 1715.0 mL of water and 250.0 mL of concentrated HCl. The mixture was stirred at 5-10° C. and the pH of the solution was adjusted to 5.6 with 665.0 mL of a 20% NaOH solution maintaining the temperature at 5-10° C. After 30 minutes of stirring, the crystallization began. The resulting suspension was stirred at 0-5° C. overnight. The precipitate was collected by filtration. This collected Form II was suspended in 1.2 L of water and heated to 30-35° C. for two hours. At the beginning, the solid partly dissolved, then precipitated again. […] The suspension was cooled to room temperature (20-25° C.), filtered and washed with 400 mL and 800 mL of water, subsequently then dried at 60-65° C. to constant weight.
# [2] = Microscopy study of the transition of Form II to Form I; settings: 30-35° C., polarized light microscope
# Protocol: Transition of wet Form II to Form I was observed through a MOTIC BA300 microscope (as shown in FIGS. 6-10) under polarized light. The transition from wet Form II to Form I proceeded rapidly. The large Form II crystals transformed to small crystals at 30-35° C. within 2 minutes. The crystals of Form II are large plates. The observed crystal form explains the observed thixotropic property of the suspension of Form II. Form I consists of uniform rounded crystals.
# [3] = Transition of Form II to Form I / product stability as a function of temperature
# Protocol: At a higher temperature (e.g., 40-50° C.) significant degradation of the product is observed. Further, the isolated yield (45%-50% instead of 60%) and the efficiency of the purification are slightly lower (98.9 area %) at −5° C. than at 0-5° C. […] During the filtration step, the thick suspension could be warmed up and partly dissolves Form II of the compound and decreases the yield.
# The complete transition from GAL-101 Form II to GAL-101 Form I is detected at room temperature (20-25° C.) within 15 minutes. The transition can start at above 10° C. The transition can be followed by microscope, the large metastable crystals transform to small crystals within a few minutes at ambient temperature (FIGS. 6-14).
# [4] = Transition of Form II to Form I followed by X-ray powder diffraction
# Protocol: X-ray powder diffraction (XRPD) patterns were obtained in a Philips model PW 3710 based PW 1050 Bragg-Brentano parafocusing goniometer using CuKa radiation (l=0.15418 nm), graphite monochromator and proportional counter. The XRD scans were digitally recorded in the […] of 3-35deg with a step size of 0.04deg.
# Form II was measured at 20-25° C. (long dashed line), then heated at 30-35 for 15 minutes (solid line), then another 60 minutes (dotted line) (FIG. 2). Form I was also measured (short dashed line). According to the measurements, Form II is highly crystalline and strongly oriented (it forms large plates).
# The transition of Form II (dark grey line) to Form I (black line) was complete at 50-60° C. within 30 minutes (FIG. 3). The reference diffractogram of Form I is shown in grey.
compound,measurement,setting,value
"CC(C)(NC(=O)[C@H](N)Cc1c[nH]c2ccccc12)C(=O)O [GAL-101 Form II, (R)-2-[2-amino-3-(indol-3-yl)propionylamino]-2-methylpropionic acid] (HELM PEPTIDE1{[dW].[Aib]}$$$$V2.0)",water needed to dissolve (water solubility),[1]; room temperature,about 4 volumes of water
same,solubility in water (in words),[1],high water solubility
same,solubility in water (in words),[1]; listed as form II,Immediately dissolving
same,time for large Form II crystals to transform to small crystals (wet Form II to Form I),[2],≤ 2 min
same,temperature above which the transition Form II to Form I can start,[3],above 10 °C
same,speed of transformation to Form I (in words),[3]; above 30° C.,very rapidly
same,time to complete transition from Form II to Form I,[3]; room temperature (20-25° C.),≤ 15 min
same,time to complete transition of Form II to Form I (XRPD),[4]; 50-60° C.,≤ 30 min
same,conversion of Form II to Form I in dry state (XRPD),"[4]; dry state, 30-35° C.",converts gradually to Form I
"CC(C)(NC(=O)[C@H](N)Cc1c[nH]c2ccccc12)C(=O)O [GAL-101 Form I, (R)-2-[2-amino-3-(indol-3-yl)propionylamino]-2-methylpropionic acid] (HELM PEPTIDE1{[dW].[Aib]}$$$$V2.0)",solubility in water (in words),[1]; listed as Form I,almost insoluble in water
